One data set deals with Caco-2 cells. Put plainly: Uptake of CLA enantiomers in Caco-2 cells (LC-MS/MS). The format is in vitro ADME, Human. Conditions: for Intracellular concentration: Mean±SD, n = 3. As for the experimental part:
Caco-2 cells on 6-well plates (5 × 10^5 cells/well) were cultured in MEM containing 10% (v/v) FBS, 1% (v/v) NEAA, 100 units/mL penicillin and 100 μg/mL streptomycin sulphate at 37°C with 95% air and 5% CO2. When 80%–90% confluence was observed using an inverted light microscope, the cells were treated, respectively, with (−)CLA or (+)CLA at 1, 2.5 and 5 μmol/L for 2 h, washed 3 times with ice-cold PBS, collected into 1.5-mL Eppendorf tubes and centrifuged at 1500 rpm for 5 min. The precipitates were lysed with 80 μL of lysis buffer described above, frozen with liquid nitrogen, then thawed in water at 37°C three times, and then centrifuged at 10,000 rpm for 10 min (4°C). We used 10 μL of supernatant for the determination of protein concentration using Lowry’s method with bovine serum albumin as the standard, and the residue of the supernatants was subjected to extraction with ethyl acetate. The internal standard (IS) was 20 μL of glipizide (5.2 μg/mL). Extracted CLA enantiomer and glipizide were measured by a liquid chromatography-tandem mass spectrometr(LC-MS/MS).
The LC-MS/MS system consisted of an Alliance HT 2795 LC pump, an autosampler, and a Micromass Quattro Premier tandem quadrupole mass spectrometer with an electrospray ionization (ESI) source and Masslynx version 4.1 software (Waters Corp., Milford, MA, USA). The separation of CLA enantiomer and glipizide was performed using an XBridge C18 column (2.1 mm × 50 mm; i.d., 3.5 μm) (Waters Corp., Milford, MA, USA). The column temperature was maintained at 22°C, and the sample injection volume was 20 μL in the autosampler at 4°C. Mobile phases A and B were water with 0.1% (v/v) acetic acid and acetonitrile with 0.1% (v/v) acetic acid, respectively. Gradient elution was used at a flow rate of 0.25 mL/min for 8 min with 80% A and 20% B for 0–2 min, 5% A and 95% B for 2–4 min and 80% A and 20% B for 4.01–8 min. The LC system was connected to the mass spectrometer by an electrospray interface. The positive-ion ESI mode was selected, and the electrospray capillary voltage was 3.5 kV. Desolvation gas (ultrapure nitrogen) flow and cone gas flow were provided separately at rates of 600 L/h and 50 L/h, and source and desolvation temperatures were set at 110°C and 450°C, respectively. Argon was used as a collision gas in collision-induced dissociation of precursor ions at a flow rate of 0.27 mL/min. The data were acquired using multiple reaction monitoring mode and analysed by Masslynx software 4.1. The main parameters (retention time, ion channel, cone voltage and collision energy) were as follows: 2.66 min, 298.2–174.1, 25 V and 17 V for CLA enantiomer; and 2.97 min, 446.7–321.2, 25 V and 12 V for glipizide (IS), respectively. The lower limit of quantification of CLA enantiomer was 0.25 ng/mL. The mean relative recovery was 89%, and intra-assay and inter-assay coefficients of variation were <15%. The range of linearity was 0.25–200 ng/mL with r = 0.999. The concentrations of (−) or (+)CLA were quantified by standard curves according to their peak areas against the IS.

Details of data set [1]: method as in PMID 18655159. Particulars: cited from earlier work.
On the set-up of data set [2]: method as in PMID 23684935. Conditions: rabbits; oral dose of 100 mg/kg; cited from earlier work.
Setting [3] is: dose of CLA enantiomer 1.0 μmol/L, 2 h.
Where [4] appears, read: dose of CLA enantiomer 2.5 μmol/L, 2 h.
[5] abbreviates: dose of CLA enantiomer 5.0 μmol/L, 2 h.

Consider two molecules from article PMC4546427, “Stereoselective Regulation of P-gp Activity by Clausenamide Enantiomers in Caco-2, KB/KBv and Brain Microvessel Endothelial Cells” (PLoS ONE, 2015).

Structures are written as SMILES.

Turning to `CN1C(=O)[C@H](O)[C@@H](c2ccccc2)[C@H]1[C@H](O)c1ccccc1` [(+)CLA, 3R,4S,5S,6R-CLA], the results for the Intracellular concentration with Caco-2 cells (setting [3]), in the data set on Caco-2 cells (setting [4]) and in the data set on Caco-2 cells (setting [5]) were 1.093 ± 0.233 ng/mL, 2.228 ± 0.065 ng/mL and 4.677 ± 1.029 ng/mL, respectively. Also, the “AUC0–∞ in target tissues (hippocampus, cortex and cerebellum), comparison of enantiomers” value in data set [1] is listed as “greater values for AUC0–∞ than did (−)CLA”. Also, the “AUC0–8 h in the portal vein” value in data set [2] is 2453 ± 1101 µg·h/mL.
As to `CN1C(=O)[C@@H](O)[C@H](c2ccccc2)[C@@H]1[C@@H](O)c1ccccc1` [(−)CLA, 3S, 4R, 5R, 6S-clausenamide], the “Ratio (-)/(+) of intracellular concentrations” value in the data set with Caco-2 cells (1.0 μmol/L, 2 h) is listed as 2.593; with Caco-2 cells (2.5 μmol/L, 2 h), 2.167; with Caco-2 cells (5.0 μmol/L, 2 h), 1.893; in the data set with Caco-2 cells (in the presence of cyclosporine A, data not shown), 1.091. The Intracellular concentration in the data set with Caco-2 cells (setting [3]) was 2.834 ± 0.808 ng/mL; in the data set on Caco-2 cells (setting [4]) it was 4.829 ± 0.603 ng/mL; with Caco-2 cells (setting [5]), 8.853 ± 2.505 ng/mL. Further, in data set [1] (15 min after oral administration, P < 0.001), the “Amount that entered into rat brain, comparison of enantiomers” value is “significantly greater than that of the (+)-isomer”. Moreover, the “AUC0–8 h in the portal vein” value in data set [2] is 1001 ± 487 µg·h/mL.
